Measured values published in PubChem BioAssay (NCI).
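Protocol summary: plate cells (96-well), add compound at 5 concentrations, incubate 48 h, interpolate endpoints linearly. The concentration for 50% growth inhibition is given as GI50. TGI: total growth inhibition.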

Key:
Experiment in all cases: inhibition of tumour cell growth, NCI panel, 48 h; in the data active means GI50 below about 0.43 µM; inactive means the rest
NCI-H226 lung = test system: NCI-H226 lung
UO-31 renal = test system: UO-31 renal
U251 CNS = test system: U251 CNS
EKVX NSCLC = test system: EKVX NSCLC
UACC-62 melanoma = test system: UACC-62 melanoma
NCI-H23 lung = test system: NCI-H23 lung
BT-549 breast = test system: BT-549 breast
SK-OV-3 ovarian = test system: SK-OV-3 ovarian
SK-MEL-5 melanoma = test system: SK-MEL-5 melanoma
SNB-75 CNS = test system: SNB-75 CNS
SNB-19 CNS = test system: SNB-19 CNS
UACC-257 melanoma = test system: UACC-257 melanoma
CAKI-1 renal = test system: CAKI-1 renal
786-0 renal = test system: 786-0 renal
KM12 colon = test system: KM12 colon
ACHN renal = test system: ACHN renal
SW-620 colon = test system: SW-620 colon
NCI-H460 lung = test system: NCI-H460 lung
HCC-2998 colon = test system: HCC-2998 colon
OVCAR-3 ovarian = test system: OVCAR-3 ovarian
PC-3 prostate = test system: PC-3 prostate
TK-10 renal = test system: TK-10 renal
OVCAR-5 ovarian = test system: OVCAR-5 ovarian
SF-539 CNS = test system: SF-539 CNS
MDA-MB-231 breast = test system: MDA-MB-231 breast
RXF 393 renal = test system: RXF 393 renal
COLO 205 colon = test system: COLO 205 colon
DU-145 prostate = test system: DU-145 prostate
SK-MEL-2 melanoma = test system: SK-MEL-2 melanoma
NCI-H522 lung = test system: NCI-H522 lung
HS 578T breast = test system: HS 578T breast
SF-268 CNS = test system: SF-268 CNS
A549 NSCLC = test system: A549 NSCLC
OVCAR-4 ovarian = test system: OVCAR-4 ovarian
T-47D breast = test system: T-47D breast
NCI/ADR-RES ovarian = test system: NCI/ADR-RES ovarian
IGROV1 ovarian = test system: IGROV1 ovarian
HOP-92 NSCLC = test system: HOP-92 NSCLC
HCT-116 colon = test system: HCT-116 colon
SR leukemia = test system: SR leukemia
SF-295 CNS = test system: SF-295 CNS
RPMI-8226 leukemia = test system: RPMI-8226 leukemia
OVCAR-8 ovarian = test system: OVCAR-8 ovarian
MDA-MB-435 = test system: MDA-MB-435
K-562 leukemia = test system: K-562 leukemia
MALME-3M melanoma = test system: MALME-3M melanoma
HOP-62 NSCLC = test system: HOP-62 NSCLC
SK-MEL-28 melanoma = test system: SK-MEL-28 melanoma
SN12C renal = test system: SN12C renal
HL-60(TB) leukemia = test system: HL-60(TB) leukemia
HT29 colon = test system: HT29 colon
MOLT-4 leukemia = test system: MOLT-4 leukemia
LOX IMVI melanoma = test system: LOX IMVI melanoma
M14 melanoma = test system: M14 melanoma
HCT-15 colon = test system: HCT-15 colon
CCRF-CEM leukemia = test system: CCRF-CEM leukemia

COC(=O)/C=C1/SC(=Nc2ccc(F)cc2)N(CCc2c[nH]c3ccc(O)cc23)C1=O
67.5 µM: TGI (OVCAR-8 ovarian)
inactive: GI50 (NCI-H226 lung) 4.17 µM | GI50 (UO-31 renal) 7.07 µM | GI50 (U251 CNS) 4.32 µM | GI50 (EKVX NSCLC) 20.7 µM | GI50 (UACC-62 melanoma) 4.75 µM | GI50 (NCI-H23 lung) 7.49 µM | GI50 (BT-549 breast) 3.75 µM | GI50 (SK-OV-3 ovarian) 24.4 µM | GI50 (SK-MEL-5 melanoma) 11.1 µM | GI50 (SNB-75 CNS) 4.01 µM | GI50 (SNB-19 CNS) 9.28 µM | GI50 (UACC-257 melanoma) 9.82 µM | GI50 (CAKI-1 renal) 24.9 µM | GI50 (786-0 renal) 6.85 µM | GI50 (KM12 colon) 5.56 µM | GI50 (ACHN renal) 7.29 µM | GI50 (SW-620 colon) > 100 µM | GI50 (NCI-H460 lung) 4.71 µM | GI50 (HCC-2998 colon) > 100 µM | GI50 (OVCAR-3 ovarian) 4.41 µM | GI50 (PC-3 prostate) 7.05 µM | GI50 (TK-10 renal) 14 µM | GI50 (OVCAR-5 ovarian) > 100 µM | GI50 (SF-539 CNS) 6.42 µM | GI50 (MDA-MB-231 breast) 14.8 µM | GI50 (RXF 393 renal) 2.23 µM | GI50 (COLO 205 colon) > 100 µM | GI50 (DU-145 prostate) 5.92 µM | GI50 (SK-MEL-2 melanoma) 2.76 µM | GI50 (NCI-H522 lung) 3.85 µM | GI50 (HS 578T breast) 4.28 µM | GI50 (SF-268 CNS) 5.96 µM | GI50 (A549 NSCLC) 41.2 µM | GI50 (OVCAR-4 ovarian) 3.37 µM | GI50 (T-47D breast) 4.4 µM | GI50 (NCI/ADR-RES ovarian) 4.69 µM | GI50 (IGROV1 ovarian) 5.79 µM | GI50 (HOP-92 NSCLC) 6.21 µM | GI50 (HCT-116 colon) 4.89 µM | GI50 (SR leukemia) 2.08 µM | GI50 (SF-295 CNS) 12 µM | GI50 (RPMI-8226 leukemia) 3.01 µM | GI50 (OVCAR-8 ovarian) 4.45 µM | GI50 (MDA-MB-435) 3.79 µM | GI50 (K-562 leukemia) > 100 µM | GI50 (MALME-3M melanoma) 12.9 µM | GI50 (HOP-62 NSCLC) 3.83 µM | GI50 (SK-MEL-28 melanoma) 7.34 µM | GI50 (SN12C renal) 8.44 µM
29.6 µM: TGI (HOP-92 NSCLC)
47.4 µM: TGI (NCI-H226 lung)
58.7 µM: TGI (TK-10 renal)
42.7 µM: TGI (SF-268 CNS)
51.9 µM: TGI (SNB-19 CNS)
22.7 µM: TGI (OVCAR-4 ovarian)
27.3 µM: TGI (U251 CNS)
9.06 µM: TGI (SK-MEL-2 melanoma)
40.1 µM: TGI (786-0 renal)
27.7 µM: TGI (UACC-62 melanoma)
41.3 µM: TGI (SF-295 CNS)
38.4 µM: TGI (BT-549 breast)
19.7 µM: TGI (HOP-62 NSCLC)
> 100 µM: TGI (UO-31 renal) | TGI (EKVX NSCLC) | TGI (NCI-H23 lung) | TGI (SK-OV-3 ovarian) | TGI (UACC-257 melanoma) | TGI (CAKI-1 renal) | TGI (KM12 colon) | TGI (ACHN renal) | TGI (SW-620 colon) | TGI (NCI-H460 lung) | TGI (HCC-2998 colon) | TGI (OVCAR-3 ovarian) | TGI (PC-3 prostate) | TGI (OVCAR-5 ovarian) | TGI (MDA-MB-231 breast) | TGI (COLO 205 colon) | TGI (DU-145 prostate) | TGI (NCI-H522 lung) | TGI (A549 NSCLC) | TGI (T-47D breast) | TGI (NCI/ADR-RES ovarian) | TGI (IGROV1 ovarian) | TGI (HCT-116 colon) | TGI (SR leukemia) | TGI (RPMI-8226 leukemia) | TGI (MDA-MB-435) | TGI (K-562 leukemia) | TGI (MALME-3M melanoma) | TGI (SK-MEL-28 melanoma) | TGI (SN12C renal)
35.7 µM: TGI (HS 578T breast)
18.3 µM: TGI (SNB-75 CNS)
77.3 µM: TGI (SK-MEL-5 melanoma)
8.98 µM: TGI (RXF 393 renal)
26.1 µM: TGI (SF-539 CNS)

COc1ccc(C(=S)N(C)NC(=O)CC(=O)NN(C)C(=S)c2ccc(OC)cc2)cc1
active: GI50 (HOP-92 NSCLC) 0.283 µM | GI50 (RPMI-8226 leukemia) 0.0119 µM
> 100 µM: TGI (NCI-H226 lung) | TGI (UO-31 renal) | TGI (U251 CNS) | TGI (EKVX NSCLC) | TGI (UACC-62 melanoma) | TGI (NCI-H23 lung) | TGI (BT-549 breast) | TGI (HL-60(TB) leukemia) | TGI (SK-OV-3 ovarian) | TGI (SK-MEL-5 melanoma) | TGI (SNB-75 CNS) | TGI (SNB-19 CNS) | TGI (CAKI-1 renal) | TGI (786-0 renal) | TGI (KM12 colon) | TGI (ACHN renal) | TGI (SW-620 colon) | TGI (NCI-H460 lung) | TGI (HT29 colon) | TGI (MOLT-4 leukemia) | TGI (OVCAR-3 ovarian) | TGI (PC-3 prostate) | TGI (TK-10 renal) | TGI (LOX IMVI melanoma) | TGI (OVCAR-5 ovarian) | TGI (SF-539 CNS) | TGI (MDA-MB-231 breast) | TGI (M14 melanoma) | TGI (DU-145 prostate) | TGI (SK-MEL-2 melanoma) | TGI (NCI-H522 lung) | TGI (SF-268 CNS) | TGI (HCT-15 colon) | TGI (A549 NSCLC) | TGI (OVCAR-4 ovarian) | TGI (T-47D breast) | TGI (NCI/ADR-RES ovarian) | TGI (IGROV1 ovarian) | TGI (HOP-92 NSCLC) | TGI (SR leukemia) | TGI (RPMI-8226 leukemia) | TGI (OVCAR-8 ovarian) | TGI (MDA-MB-435) | TGI (CCRF-CEM leukemia) | TGI (K-562 leukemia) | TGI (MALME-3M melanoma) | TGI (HOP-62 NSCLC) | TGI (SK-MEL-28 melanoma) | TGI (SN12C renal)
70.8 µM: TGI (COLO 205 colon)
82.6 µM: TGI (HS 578T breast)
39 µM: TGI (SF-295 CNS)
inactive: GI50 (NCI-H226 lung) 49.8 µM | GI50 (UO-31 renal) 24.9 µM | GI50 (U251 CNS) 45.8 µM | GI50 (EKVX NSCLC) 32 µM | GI50 (UACC-62 melanoma) 37 µM | GI50 (NCI-H23 lung) 46.6 µM | GI50 (BT-549 breast) 50.3 µM | GI50 (HL-60(TB) leukemia) > 100 µM | GI50 (SK-OV-3 ovarian) > 100 µM | GI50 (SK-MEL-5 melanoma) 36.2 µM | GI50 (SNB-75 CNS) > 100 µM | GI50 (SNB-19 CNS) > 100 µM | GI50 (CAKI-1 renal) 31.8 µM | GI50 (786-0 renal) 58.5 µM | GI50 (KM12 colon) 62.7 µM | GI50 (ACHN renal) 50.7 µM | GI50 (SW-620 colon) 33.3 µM | GI50 (NCI-H460 lung) 18.1 µM | GI50 (HT29 colon) 39.1 µM | GI50 (MOLT-4 leukemia) > 100 µM | GI50 (OVCAR-3 ovarian) 36.5 µM | GI50 (PC-3 prostate) 26.1 µM | GI50 (TK-10 renal) 67 µM | GI50 (LOX IMVI melanoma) 28.9 µM | GI50 (OVCAR-5 ovarian) 76.3 µM | GI50 (SF-539 CNS) 51.9 µM | GI50 (MDA-MB-231 breast) > 100 µM | GI50 (RXF 393 renal) 40.4 µM | GI50 (COLO 205 colon) 12.8 µM | GI50 (M14 melanoma) 33.5 µM | GI50 (DU-145 prostate) 46.9 µM | GI50 (SK-MEL-2 melanoma) 79.6 µM | GI50 (NCI-H522 lung) 45.9 µM | GI50 (HS 578T breast) 24.4 µM | GI50 (SF-268 CNS) 43.2 µM | GI50 (HCT-15 colon) 17.6 µM | GI50 (A549 NSCLC) 24.5 µM | GI50 (OVCAR-4 ovarian) 31.7 µM | GI50 (T-47D breast) 58.6 µM | GI50 (NCI/ADR-RES ovarian) 29.1 µM | GI50 (IGROV1 ovarian) 54.4 µM | GI50 (SR leukemia) > 100 µM | GI50 (SF-295 CNS) 1.63 µM | GI50 (OVCAR-8 ovarian) 38.9 µM | GI50 (MDA-MB-435) 59.9 µM | GI50 (CCRF-CEM leukemia) 23.4 µM | GI50 (K-562 leukemia) 59.4 µM | GI50 (MALME-3M melanoma) 52.3 µM | GI50 (HOP-62 NSCLC) > 100 µM | GI50 (SK-MEL-28 melanoma) 42.6 µM | GI50 (SN12C renal) 98 µM
92.3 µM: TGI (RXF 393 renal)
